Reference: patent US20020160986A1, “Compounds having activity as inhibitors of cytochrome P450RAI” (priority 2000, published 2002)
Read-outs that look alike come from different tables or passages of the source.

Columns and labels:
skin of hairless mice = settings: topical in acetone, once daily days 1 through 5, mean ±SD, range 0-21
Description: This irritation is a direct result of activation of the RAR nuclear receptors. Analysis of retinoid topical irritation is also a highly reproducible method of determining in vivo retinoid potency. The SKH1-hrBR or hairless mouse provides a convenient animal model of topical irritation, since retinoid-induced skin flaking and abrasion can be readily scored by eye (Standeven et al., “Specific antagonist of retinoid toxicity in mice.” Toxicol. Appl. Pharmacol., 138:169-175, (1996); Thacher, et al., “Receptor specificity of retinoid-induced hyperplasia. Effect of RXR-selective agonists and correlation with topical irritation”. J. Pharm. Exp. Ther., 282:528-534, (1997)).
Female hairless mice (Crl:SKH1-hrBR), 5-7 weeks old, were obtained from Charles River Breeding Labs (Wilmington, Mass.). […]
The mice were weighed daily and the dorsal skin was graded daily using separate semi-quantitative scales to determine flaking and abrasion. […]
Flaking onset score (2) and average severity score (3) are summed and divided by two. […] Composite flaking scores are calculated for each individual animal in a group, averaged, and rounded to the nearest integer. […]
Abrasion onset score (5) and average severity score (6) are summed and divided by two. […] Composite abrasion scores are calculated for each individual animal in a group, averaged and rounded to the nearest integer. […]

RARβ = target: T1, RARβ (Homo sapiens, UniProt P10826); experiment: ligand binding assay, RARβ; settings: read-out: RAR β Kd
T1 sequence (P10826 1-455): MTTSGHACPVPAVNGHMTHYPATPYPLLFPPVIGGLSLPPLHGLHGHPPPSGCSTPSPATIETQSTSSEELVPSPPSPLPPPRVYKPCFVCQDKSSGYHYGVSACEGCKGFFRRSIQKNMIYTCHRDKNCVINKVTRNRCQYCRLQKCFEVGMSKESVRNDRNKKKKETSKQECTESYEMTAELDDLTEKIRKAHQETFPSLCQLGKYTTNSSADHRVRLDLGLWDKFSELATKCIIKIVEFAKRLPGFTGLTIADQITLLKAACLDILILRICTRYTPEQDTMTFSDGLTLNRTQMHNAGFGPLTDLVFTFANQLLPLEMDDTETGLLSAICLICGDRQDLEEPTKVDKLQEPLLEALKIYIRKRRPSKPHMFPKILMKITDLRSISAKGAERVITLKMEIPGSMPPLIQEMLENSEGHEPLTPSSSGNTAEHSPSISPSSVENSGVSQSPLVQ
Description: (§1) Assays described below measure the ability of a compound to bind to, and/or activate various retinoid receptor subtypes. When in these assays a compound binds to a given receptor subtype and activates the transcription of a reporter gene through that subtype, then the compound is considered an agonist of that receptor subtype. […] In the below described assays the ability of the compounds to bind to RAR60 , RAR62 , RARγ, RXR60 , RXR62 , and RXRγ receptors, and the ability or inability of the compounds to activate transcription of a reporter gene through these receptor subtypes can be tested.
A holoreceptor transactivation assay and a ligand binding assay which measure the antagonist/agonist like activity of the compounds of the invention, or their ability to bind to the several retinoid receptor subtypes, respectively, are described in published PCT Application No. WO WO93/11755 (particularly on pages 30-33 and 37-41) published on Jun. 24, 1993, the specification of which is also incorporated herein by reference. […] The results obtained in this assay are expressed in EC50 numbers, as they are also in the chimeric receptor transactivation assay. The results of ligand binding assay are expressed in Kd numbers. (See Cheng et al. Biochemical Pharmacology Vol. 22 pp 3099-3108, expressly incorporated herein by reference.)

RARα = target: T2, RARα (Homo sapiens, UniProt P10276); experiment: ligand binding assay, RARα; settings: read-out: RAR α Kd
T2 sequence (P10276 1-462): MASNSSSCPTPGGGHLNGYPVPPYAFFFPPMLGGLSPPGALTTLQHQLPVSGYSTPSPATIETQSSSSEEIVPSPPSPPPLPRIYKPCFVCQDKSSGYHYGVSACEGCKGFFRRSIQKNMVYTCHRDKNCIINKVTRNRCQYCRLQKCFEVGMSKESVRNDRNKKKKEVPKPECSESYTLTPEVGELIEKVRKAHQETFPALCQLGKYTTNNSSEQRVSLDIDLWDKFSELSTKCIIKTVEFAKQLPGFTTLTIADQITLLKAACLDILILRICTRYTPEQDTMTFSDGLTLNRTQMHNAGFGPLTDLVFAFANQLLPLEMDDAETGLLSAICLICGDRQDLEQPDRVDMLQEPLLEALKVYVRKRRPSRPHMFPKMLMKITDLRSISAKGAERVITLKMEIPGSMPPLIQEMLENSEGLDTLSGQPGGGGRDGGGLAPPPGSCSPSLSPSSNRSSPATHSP
Description: as §1
A holoreceptor transactivation assay and a ligand binding assay which measure the antagonist/agonist like activity of the compounds of the invention, or their ability to bind to the several retinoid receptor subtypes, respectively, are described in published PCT Application No. WO WO93/11755 (particularly on pages 30-33 and 37-41) published on Jun. 24, 1993, the specification of which is also incorporated herein by reference. A detailed experimental procedure for holoreceptor transactivations has been described by Heyman et al. Cell 68,397-406, (1992); Allegretto et al. J. Biol. Chem. 268,26625-26633, and Mangelsdorf et al. The Retinoids: Biology, Chemistry and Medicine, pp 319-349, Raven Press Ltd., New York, which are expressly incorporated herein by reference. […]

[1] = target: T3, P450RAI-1 stably transfected HeLa cells (Homo sapiens, UniProt O43174); experiment: P450RAI-1 cell-based inhibitor assay; settings: inhibition of all-trans-RA metabolism, [3H]-RA, 3 hours at 37° C.; read-out: P450RAI INHIBITION DATA INTACT HELA IC50
T3 construct: expressed in transfected cells; host or cells: HeLa cells, stably transfected, hygromycin selection
T3 sequence (O43174 1-497): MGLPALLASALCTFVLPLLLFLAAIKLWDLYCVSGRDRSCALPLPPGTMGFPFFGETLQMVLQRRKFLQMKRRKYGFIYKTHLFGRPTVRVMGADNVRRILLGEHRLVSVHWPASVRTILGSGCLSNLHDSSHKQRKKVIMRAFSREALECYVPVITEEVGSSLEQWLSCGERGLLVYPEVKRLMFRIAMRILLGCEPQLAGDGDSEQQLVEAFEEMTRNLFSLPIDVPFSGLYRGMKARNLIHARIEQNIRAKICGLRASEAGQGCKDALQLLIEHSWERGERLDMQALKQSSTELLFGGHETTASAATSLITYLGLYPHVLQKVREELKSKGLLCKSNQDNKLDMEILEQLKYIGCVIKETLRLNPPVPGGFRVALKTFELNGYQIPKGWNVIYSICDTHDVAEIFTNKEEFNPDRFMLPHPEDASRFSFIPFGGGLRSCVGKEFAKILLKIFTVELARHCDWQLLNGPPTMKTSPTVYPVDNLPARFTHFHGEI
Procedure: P450RAI-1 Cell-Based Inhibitor Assay:
P450RAI -1 stably transfected HeLa cells are maintained in […] tissue culture dishes in Modified Eagle's Medium (MEM) containing 10% Fetal Bovine Serum (FBS) and 100 μg/ml hygromycin. Exponentially growing cells are harvested by incubating in trypsin. Cells are then washed with 1× Phosphate Buffered Saline (PBS) and plated in a 48-well plate at 5×10^5 cells in 0.2 ml MEM medium containing 10% FBS and 0.05 μCi [^3H]-RA in the presence or absence of increasing concentrations of the test compounds. The compounds are diluted in 100% DMSO and then added in triplicate wells at either 10, 1 or 0.1 μM final concentration. As a positive control for RA metabolism inhibition, cells are also incubated with ketoconazole at 100, 10 and 1 μM. Cell are incubated for 3 hours at 37° C. […] The water soluble radioactivity is quantified using a β-scintillation counter. IC50 values represent the concentration of inhibitor required to inhibit all-trans-RA metabolism by 50 percent and are derived manually from log-transformed data.

## CC1(C)CCC(=O)c2ccc(C#Cc3ccc(CC(=O)O)c(F)c3)cc21 [Compound 15, [2-Fluoro-4-(8.8-dimethyl-5-oxo-5,6,7,8-tetrahydro-naphthalene-2-yl-ethynyl)phenyl]-acetic acid]
Skin of hairless mice; 100 nmole (nmol/25 g)
  Cutaneous Toxicity Score (Blackjack Score): 1 ± 1
Skin of hairless mice; 1000 nmole (nmol/25 g)
  Cutaneous Toxicity Score (Blackjack Score): 5 ± 2

## Cc1cc(C#Cc2ccc(CC(=O)O)cc2)ccc1Cn1ccnc1 [Compound 121, [4-(4-Imidazol-1-yl-methyl-3-methyl-phenylethynyl)-phenyl]-acetic acid]
RARβ
  Kd: > 100 µM
RARα
  Kd: > 10 µM
[1]
  IC50: 0.18 µM
